Columns and labels:
Assay in all cases: Biological Example 2 glasshouse assay for herbicidal activity
Assay type in all cases: in vivo
[1] = test system: Brassica napus (BRSNN, rape); settings: Brassica napus, 360 h, post-emergence, 14 or 15 DAA, 0.2% v/v X-77, read-out: percentage phytotoxicity BRSNN
In short: (§1)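 Herbicide applied as a spray (IF50 formulation, 0.2% v/v X-77 adjuvant) to soil-grown plants pre-emergence or post-emergence. Ratings were taken 20 DAA or 14–15 DAA respectively, on a 0–100% scale.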

[2] = test system: Echinochloa crus-galli (ECHCG); settings: Echinochloa crus-galli, post-emergence, 360 h, 14 or 15 DAA, 0.2% v/v X-77, read-out: percentage phytotoxicity ECHCG
In short: as §1

Lolium perenne (LOLPE) = settings: Lolium perenne, post-emergence, 360 h, 14 or 15 DAA, 0.2% v/v X-77, read-out: percentage phytotoxicity LOLPE
In short: as §1

[3] = test system: Digitaria sanguinalis (DIGSA); settings: post-emergence, 360 h, 14 or 15 DAA, 0.2% v/v X-77, read-out: percentage phytotoxicity DIGSA
In short: as §1

[4] = test system: Zea mays (ZEAMX, corn, maize, e.g. volunteer corn); settings: Zea mays, post-emergence, 360 h, 14 or 15 DAA, 0.2% v/v X-77, read-out: percentage phytotoxicity ZEAMX
In short: as §1

[5] = test system: Glycine max (GLXMA, soybean); settings: post-emergence, 360 h, 14 or 15 DAA, 0.2% v/v X-77, read-out: percentage phytotoxicity GLXMA
In short: as §1

[6] = test system: Triticum aestivum (TRZAW, winter wheat); settings: post-emergence, 360 h, 14 or 15 DAA, 0.2% v/v X-77, read-out: percentage phytotoxicity TRZAW
In short: as §1

[7] = test system: Alopecurus myosuroides (ALOMY); settings: post-emergence, 360 h, 14 or 15 DAA, 0.2% v/v X-77, read-out: percentage phytotoxicity ALOMY
In short: as §1

[8] = test system: SORVU (Sorghum bicolor (L.) Moench ssp. Bicolor, or Sorghum vulgare Pers.); settings: post-emergence, 360 h, 14 or 15 DAA, 0.2% v/v X-77, read-out: percentage phytotoxicity SORVU
In short: as §1

Setaria faberi (SETFA) = settings: post-emergence, 360 h, 14 or 15 DAA, 0.2% v/v X-77, read-out: percentage phytotoxicity SETFA
In short: as §1

Avena fatua (AVEFA) = settings: post-emergence, 360 h, 14 or 15 DAA, 0.2% v/v X-77, read-out: percentage phytotoxicity AVEFA
In short: as §1

[9] = test system: Brachiaria plantaginea (BRAPL); settings: Urochloa plantaginea, post-emergence, 360 h, 14 or 15 DAA, 0.2% v/v X-77, read-out: percentage phytotoxicity BRAPL
In short: as §1

[10] = test system: Beta vulgaris (BEAVA, sugarbeet); settings: post-emergence, 360 h, 14 or 15 DAA, 0.2% v/v X-77, read-out: percentage phytotoxicity BEAVA
In short: as §1

| SMILES | plant injury at 30 g/ha [1] [%] | plant injury at 250 g/ha [1] [%] | pest or weed control at 30 g/ha [2] [%] | pest or weed control at 250 g/ha [2] [%] | pest or weed control at 30 g/ha (Lolium perenne (LOLPE)) [%] | pest or weed control at 250 g/ha (Lolium perenne (LOLPE)) [%] | pest or weed control at 30 g/ha [3] [%] | pest or weed control at 250 g/ha [3] [%] | pest or weed control at 30 g/ha [4] [%] | pest or weed control at 250 g/ha [4] [%] | plant injury at 30 g/ha [5] [%] | plant injury at 250 g/ha [5] [%] | plant injury at 30 g/ha [6] [%] | plant injury at 250 g/ha [6] [%] | pest or weed control at 30 g/ha [7] [%] | pest or weed control at 250 g/ha [7] [%] | pest or weed control at 30 g/ha [8] [%] | pest or weed control at 250 g/ha [8] [%] | pest or weed control at 30 g/ha (Setaria faberi (SETFA)) [%] | pest or weed control at 250 g/ha (Setaria faberi (SETFA)) [%] | further results |
| --- | --- | --- | --- | --- | --- | --- | --- | --- | --- | --- | --- | --- | --- | --- | --- | --- | --- | --- | --- | --- | --- |
| CC#Cc1cc(F)c(C2C(=O)C3CCC(C3)C2=O)c(OC(F)F)c1 (centres unmarked) [Compound A7] | 30 | 60 | 90 | 100 | 0 | 40 | 90 | 100 | 80 | 100 | 20 | 20 | 30 | 70 | 30 | 70 | 50 | 100 | 60 | 90 | plant injury at 125 g/ha ([1]; 125 g/ha): 50%; pest or weed control at 125 g/ha ([2]; 125 g/ha): 100%; pest or weed control at 125 g/ha (Lolium perenne (LOLPE); 125 g/ha): 30%; pest or weed control at 125 g/ha ([3]; 125 g/ha): 100%; pest or weed control at 125 g/ha ([4]; 125 g/ha): 90%; plant injury at 125 g/ha ([5]; 125 g/ha): 20%; plant injury at 125 g/ha ([6]; 125 g/ha): 70%; pest or weed control at 125 g/ha ([7]; 125 g/ha): 70%; pest or weed control at 125 g/ha ([8]; 125 g/ha): 90%; pest or weed control at 125 g/ha (Setaria faberi (SETFA); 125 g/ha): 90%; pest or weed control at 30 g/ha (Avena fatua (AVEFA)): 10%; pest or weed control at 125 g/ha (Avena fatua (AVEFA); 125 g/ha): 30%; pest or weed control at 250 g/ha (Avena fatua (AVEFA)): 40%; pest or weed control at 30 g/ha [9]: 90%; pest or weed control at 125 g/ha ([9]; 125 g/ha): 100%; pest or weed control at 250 g/ha [9]: 100%; plant injury at 30 g/ha [10]: 0%; plant injury at 125 g/ha ([10]; 125 g/ha): 0%; plant injury at 250 g/ha [10]: 10% |
| CC#Cc1cc(F)c(C2=C(OC(=O)C(C)(C)C)C3CCC(C3)C2=O)c(OC)c1 (centres unmarked) [Compound P1] | 10 | 80 | 100 | 100 | 100 | 100 | 90 | 100 | 100 | 100 | 0 | 20 | 60 | 90 | 80 | 90 | 100 | 100 | 80 | 90 | pest or weed control at 30 g/ha (Avena fatua (AVEFA)): 80%; pest or weed control at 250 g/ha (Avena fatua (AVEFA)): 90%; pest or weed control at 30 g/ha [9]: 100%; pest or weed control at 250 g/ha [9]: 90%; plant injury at 30 g/ha [10]: 0%; plant injury at 250 g/ha [10]: 0% |

From patent publication US10590143B2, “Herbicidally active (alkynyl-phenyl)-substituted cyclic dione compounds and derivatives thereof” (Syngenta Limited, priority 2013, dated 2020)
